# Data taken from ChEMBL document CHEMBL1201862, “PubChem BioAssay data set” (2004).
# The source made the active and inactive calls.
# Tests used:
# [1] = test system: Streptococcus sp. 'group A'; assay: growth inhibition of control SK(-) GAS strain, dose response, counter-screen for streptokinase expression inhibitor project, luminescence, kanamycin, BacTiterGlo, confirmation (AID 1900); type: functional, organism-based
# Streptokinase A = molecular target: T1, Streptokinase A (Streptococcus pyogenes serotype M1, UniProt P10520); assay: S. pyogenes streptokinase expression inhibitors, potency, dose response, plasminogen activation absorbance, OD405 (AID 1914); type: functional, Streptococcus pyogenes M1 GAS;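 also: secreted streptokinase activity via plasminogen activation per viability signal from cell pellet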
# T1 sequence (P10520 whole entry): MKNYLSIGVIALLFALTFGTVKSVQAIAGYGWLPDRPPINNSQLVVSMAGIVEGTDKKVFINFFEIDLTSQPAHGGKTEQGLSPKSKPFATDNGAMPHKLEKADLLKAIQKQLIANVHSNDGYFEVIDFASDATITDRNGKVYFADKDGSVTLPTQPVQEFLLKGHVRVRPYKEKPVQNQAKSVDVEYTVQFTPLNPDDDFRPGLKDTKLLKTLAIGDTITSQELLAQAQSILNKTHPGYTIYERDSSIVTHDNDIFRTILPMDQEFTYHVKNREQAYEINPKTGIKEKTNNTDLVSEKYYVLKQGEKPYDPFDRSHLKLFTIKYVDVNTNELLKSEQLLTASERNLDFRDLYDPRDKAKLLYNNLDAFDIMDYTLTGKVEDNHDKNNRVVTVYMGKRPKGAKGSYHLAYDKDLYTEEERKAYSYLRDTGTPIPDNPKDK
# Streptococcus = assay: Group A Streptococcus viability loss, dose response, counter-screen for streptokinase expression inhibitor project, luminescence, BacTiterGlo (AID 1915); type: functional, organism-based;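 also: potency for reduction of bacterial viability or growth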
# Vero = Vero cell cytotoxicity, cytotoxicity control for flavivirus capping enzyme inhibitors (AID 588742); type: functional; conditions: Chlorocebus sabaeus
# Genome polyprotein = Genome polyprotein (dengue virus type 2, UniProt P29990); assay: Dengue-2 NS5 methyltransferase inhibitors, primary screen, biochemical, confirmation dose response (AID 588689); type: functional
# [2] = AlphaScreen signal interference compounds, dose response, artefact control for ARNT-TACC3 interaction inhibitor project, biochemical, luminescence, cherry-pick (AID 651705); type: functional;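 also: AlphaScreen bead proximity signal that flags compounds interfering with the detection technology; potency reflects signal decrease which marks the compound as an assay artifact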
# [3] = ARNT/TACC3 interaction disruptors, potency, confirmation, biochemical, AlphaScreen, cherry-picked samples (AID 651703); type: functional, Homo sapiens;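 also: His-tagged ARNT PAS-B domain paired with GST-TACC3 E629A dimer coactivator fragment; potency of inhibitors that break up the complex and lower AlphaScreen signal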
# [4] = inhibitors of intracellular T. cruzi replication, confirmation, NIH3T3 host cells, beta-gal luminescence (AID 2044); type: functional, cell-based;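 also: intracellular parasites grown in NIH/3T3 mouse fibroblasts as host cells; luminescent beta-galactosidase reporter signal from transgenic T. cruzi replicating inside host cells; inhibitors lower the luminescence signal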
# [5] = cytotoxicity toward NIH3T3 fibroblasts, dose response, counter-screen, cell-based, ATP luminescence, mouse fibroblasts (AID 2010); type: functional;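 also: cells exposed to compound for about 90 hours before reading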
# [6] = molecular target: T2, Replicative DNA helicase DnaB (Mycobacterium tuberculosis, UniProt P9WMR3); assay: DnaB intein splicing inhibitors, dose response, biochemical, cell-free fluorescence (AID 449749); type: functional
# T2 sequence (P9WMR3 whole entry): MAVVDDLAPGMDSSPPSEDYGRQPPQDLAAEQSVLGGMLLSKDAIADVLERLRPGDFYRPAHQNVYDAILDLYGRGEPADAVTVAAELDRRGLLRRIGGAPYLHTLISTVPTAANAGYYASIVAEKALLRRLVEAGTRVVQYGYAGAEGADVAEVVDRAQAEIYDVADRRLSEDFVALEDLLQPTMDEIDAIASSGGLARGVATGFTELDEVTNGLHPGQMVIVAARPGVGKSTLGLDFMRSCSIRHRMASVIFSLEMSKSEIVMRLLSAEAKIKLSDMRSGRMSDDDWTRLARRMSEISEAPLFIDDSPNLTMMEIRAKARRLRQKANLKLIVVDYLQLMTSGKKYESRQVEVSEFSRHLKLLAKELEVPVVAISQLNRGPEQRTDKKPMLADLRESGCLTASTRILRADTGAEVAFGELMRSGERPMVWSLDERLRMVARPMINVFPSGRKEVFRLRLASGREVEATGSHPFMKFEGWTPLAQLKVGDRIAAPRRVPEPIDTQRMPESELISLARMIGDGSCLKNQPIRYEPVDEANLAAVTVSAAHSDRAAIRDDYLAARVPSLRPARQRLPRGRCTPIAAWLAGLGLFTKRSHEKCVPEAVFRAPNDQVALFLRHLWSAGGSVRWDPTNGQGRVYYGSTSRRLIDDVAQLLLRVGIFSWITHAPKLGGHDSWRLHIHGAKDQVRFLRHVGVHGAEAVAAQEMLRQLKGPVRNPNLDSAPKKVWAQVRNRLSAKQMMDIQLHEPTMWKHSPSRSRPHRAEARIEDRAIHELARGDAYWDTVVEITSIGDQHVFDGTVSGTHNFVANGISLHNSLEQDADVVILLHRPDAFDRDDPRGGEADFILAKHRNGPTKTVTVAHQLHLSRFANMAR
# Protein RecA = molecular target: T3, Protein RecA (Mycobacterium tuberculosis, UniProt P9WHJ3); assay: Fluorescence Cell-Free Homogeneous Dose Retest to Identify Inhibitors of RecA-Intein Splicing Activity. [Related pubchem assays (depositor defined):AID2097, AID2223, AID489010, AID492950]; type: functional
# T3 sequence (P9WHJ3 whole entry): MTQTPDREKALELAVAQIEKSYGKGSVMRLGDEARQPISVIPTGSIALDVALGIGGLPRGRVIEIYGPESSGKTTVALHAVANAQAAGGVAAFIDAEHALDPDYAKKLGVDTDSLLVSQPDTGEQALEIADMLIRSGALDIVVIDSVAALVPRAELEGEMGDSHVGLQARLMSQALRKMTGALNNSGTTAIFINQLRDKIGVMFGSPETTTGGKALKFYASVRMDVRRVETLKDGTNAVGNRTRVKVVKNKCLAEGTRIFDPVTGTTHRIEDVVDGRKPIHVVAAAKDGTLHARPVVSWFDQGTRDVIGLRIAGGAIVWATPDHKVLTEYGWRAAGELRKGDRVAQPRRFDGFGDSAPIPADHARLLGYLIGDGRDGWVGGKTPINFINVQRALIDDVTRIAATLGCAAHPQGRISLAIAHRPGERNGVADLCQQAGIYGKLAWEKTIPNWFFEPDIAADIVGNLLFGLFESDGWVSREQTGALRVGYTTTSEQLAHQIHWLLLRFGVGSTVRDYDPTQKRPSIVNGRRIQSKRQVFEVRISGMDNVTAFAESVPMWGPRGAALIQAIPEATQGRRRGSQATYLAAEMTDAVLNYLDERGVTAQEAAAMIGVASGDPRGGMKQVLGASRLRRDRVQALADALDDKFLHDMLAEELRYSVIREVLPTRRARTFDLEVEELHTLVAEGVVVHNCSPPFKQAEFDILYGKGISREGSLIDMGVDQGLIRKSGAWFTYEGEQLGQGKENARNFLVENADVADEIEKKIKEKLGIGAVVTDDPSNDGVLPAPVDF
# [7] = molecular target: 26S proteasome non-ATPase regulatory subunit 14 (Homo sapiens, UniProt O00487); assay: inhibition of proteasome subunit RPN11 – biochemical, fluorescence polarization, uHTS hits, confirmation (AID 602368); type: functional
# [8] = molecular target: 72 kDa type IV collagenase (Homo sapiens, UniProt P08253); assay: Dose Response validation of uHTS RPN11 inhibitor hits using a MMP-2 Fluorescence assay.; type: functional
# Prothrombin = Prothrombin (Bos taurus, UniProt P00735); assay: thrombin inhibition, dose response, biochemical, fluorescence polarization, uHTS hits (AID 602369); type: functional
# Nonstructural protein 1 = Nonstructural protein 1 (Influenza A virus, UniProt Q194T2); type: functional, Influenza A virus (A/California/07/2009(H1N1))
# [9] = molecular target: Delta-type opioid receptor (Homo sapiens, UniProt P41143); assay: Counterscreen for agonists of heterodimerization of the mu 1 (OPRM1) and delta 1 (OPRD1) opioid receptors: Luminescence-based cell-based high throughput dose response assay to identify agonists of OPRD1 homodimerization. [Related pubchem assays (depositor defined):AID504326, AID504355, AID504692, AID504904, AID504905]; type: functional
# Mu-type opioid receptor = Mu-type opioid receptor (Homo sapiens, UniProt P35372); assay: Counterscreen for agonists of heterodimerization of the mu 1 (OPRM1) and delta 1 (OPRD1) opioid receptors: Luminescence-based cell-based high throughput dose response assay to identify agonists of OPRM1 homodimerization.; type: functional;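 also: U2OS cells expressing OPRM1 and beta-arrestin as split beta-galactosidase partners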
# [10] = molecular target: 5-hydroxytryptamine receptor 5A (Homo sapiens, UniProt P47898); assay: Counterscreen for agonists of OPRM1-OPRD1 heterodimerization: luminescence-based cell-based high throughput dose response assay to identify agonists of 5-hydroxytryptamine (serotonin) 5A receptor (HTR5A). [Related pubchem assays (depositor defined):AID504326, AID504355, AID504692, AID504904, AID504905]; type: functional
# [11] = molecular target: Ras and Rab interactor 1/Tyrosine-protein kinase ABL1 (Homo sapiens, UniProt P00519+Q13671); type: functional;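 also: biochemical TR-FRET dose-response test measuring inhibition of binding between Rin1 and Abl proteins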
# [12] = Shn3 3'UTR reporter inhibitors, dose response, cell-based, Clone20 osteoblasts, firefly luciferase, cherry-picked (AID 624132); type: functional;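 also: firefly luciferase luminescence from reporter carrying the Shn3 3'UTR in osteoblasts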
# [13] = HepG2 cell cytotoxicity, dose response, cytotoxicity control for Shn3 inhibitor project, CellTiter-Glo, cherry-picked (AID 624134); type: functional, cell-based
# [14] = control 3'UTR Renilla luciferase suppression, dose response, counter-screen for Shn3 inhibitor project, cell-based, Clone20-Shn3RL, cherry-picked (AID 624133); type: functional
# [15] = molecular target: T4, Apoptotic protease-activating factor 1 (Homo sapiens, UniProt O14727); assay: SAR analysis of small molecule Activators of Apaf-1 in a Fluorescent assay.; type: functional; conditions: read-out: EC50_Mean;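 also: caspase-3 cleavage of fluorogenic Rh110 DEVD substrate downstream of apoptosome activation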
# T4 sequence (O14727 whole entry): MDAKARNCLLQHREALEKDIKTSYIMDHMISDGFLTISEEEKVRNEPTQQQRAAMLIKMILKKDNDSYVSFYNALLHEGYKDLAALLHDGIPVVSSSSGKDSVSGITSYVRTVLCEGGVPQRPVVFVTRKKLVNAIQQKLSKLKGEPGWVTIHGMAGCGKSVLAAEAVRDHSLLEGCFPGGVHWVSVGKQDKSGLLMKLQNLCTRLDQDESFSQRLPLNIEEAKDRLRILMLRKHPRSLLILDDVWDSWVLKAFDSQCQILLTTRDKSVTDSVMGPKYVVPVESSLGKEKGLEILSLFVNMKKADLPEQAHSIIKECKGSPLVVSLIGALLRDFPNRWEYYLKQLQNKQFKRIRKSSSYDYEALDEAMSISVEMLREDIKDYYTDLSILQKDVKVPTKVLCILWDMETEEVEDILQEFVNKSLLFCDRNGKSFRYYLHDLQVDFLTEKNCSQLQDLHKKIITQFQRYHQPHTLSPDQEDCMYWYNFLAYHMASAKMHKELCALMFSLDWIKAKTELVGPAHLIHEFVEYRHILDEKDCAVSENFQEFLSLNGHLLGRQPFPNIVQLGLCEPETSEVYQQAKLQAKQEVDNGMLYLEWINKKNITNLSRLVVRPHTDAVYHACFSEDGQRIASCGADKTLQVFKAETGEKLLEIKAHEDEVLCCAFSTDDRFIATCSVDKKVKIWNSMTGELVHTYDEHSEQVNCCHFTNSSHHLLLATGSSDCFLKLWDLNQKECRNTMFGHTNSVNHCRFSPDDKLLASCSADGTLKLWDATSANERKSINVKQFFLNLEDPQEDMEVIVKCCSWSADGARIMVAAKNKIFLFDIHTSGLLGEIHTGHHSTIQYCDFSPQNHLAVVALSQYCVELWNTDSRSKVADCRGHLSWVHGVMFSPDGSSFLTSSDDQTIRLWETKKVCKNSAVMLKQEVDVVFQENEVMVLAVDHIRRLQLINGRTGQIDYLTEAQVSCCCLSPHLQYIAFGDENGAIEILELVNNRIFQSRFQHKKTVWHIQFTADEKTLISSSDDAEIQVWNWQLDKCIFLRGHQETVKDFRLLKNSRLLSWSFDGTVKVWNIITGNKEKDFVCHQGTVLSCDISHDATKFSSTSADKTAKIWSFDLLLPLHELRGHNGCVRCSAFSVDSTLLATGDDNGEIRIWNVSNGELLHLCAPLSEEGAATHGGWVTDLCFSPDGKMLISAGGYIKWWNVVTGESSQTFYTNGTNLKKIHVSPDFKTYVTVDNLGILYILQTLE
# Chain of 5-hydroxytryptamine receptor 5A (P47898 whole entry): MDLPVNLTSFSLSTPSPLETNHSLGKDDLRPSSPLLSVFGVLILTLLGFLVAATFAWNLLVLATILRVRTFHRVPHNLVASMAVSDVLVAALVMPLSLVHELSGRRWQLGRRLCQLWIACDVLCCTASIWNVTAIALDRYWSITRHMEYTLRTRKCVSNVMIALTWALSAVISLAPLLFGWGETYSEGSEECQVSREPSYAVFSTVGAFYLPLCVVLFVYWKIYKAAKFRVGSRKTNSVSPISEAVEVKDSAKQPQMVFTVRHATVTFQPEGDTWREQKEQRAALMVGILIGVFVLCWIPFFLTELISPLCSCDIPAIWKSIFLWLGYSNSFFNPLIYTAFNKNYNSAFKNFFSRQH
# Chain of 26S proteasome non-ATPase regulatory subunit 14 (O00487 whole entry): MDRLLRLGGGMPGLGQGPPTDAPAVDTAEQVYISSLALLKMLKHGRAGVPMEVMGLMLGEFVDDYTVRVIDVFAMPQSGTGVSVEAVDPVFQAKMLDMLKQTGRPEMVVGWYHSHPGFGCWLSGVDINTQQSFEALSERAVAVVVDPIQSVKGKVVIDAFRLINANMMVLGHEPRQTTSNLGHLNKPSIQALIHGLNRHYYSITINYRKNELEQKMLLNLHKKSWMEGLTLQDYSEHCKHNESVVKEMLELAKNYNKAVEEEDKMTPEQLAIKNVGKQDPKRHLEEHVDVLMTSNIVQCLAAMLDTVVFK
# Chain of Genome polyprotein (P29990 2492-3391 limits assumed): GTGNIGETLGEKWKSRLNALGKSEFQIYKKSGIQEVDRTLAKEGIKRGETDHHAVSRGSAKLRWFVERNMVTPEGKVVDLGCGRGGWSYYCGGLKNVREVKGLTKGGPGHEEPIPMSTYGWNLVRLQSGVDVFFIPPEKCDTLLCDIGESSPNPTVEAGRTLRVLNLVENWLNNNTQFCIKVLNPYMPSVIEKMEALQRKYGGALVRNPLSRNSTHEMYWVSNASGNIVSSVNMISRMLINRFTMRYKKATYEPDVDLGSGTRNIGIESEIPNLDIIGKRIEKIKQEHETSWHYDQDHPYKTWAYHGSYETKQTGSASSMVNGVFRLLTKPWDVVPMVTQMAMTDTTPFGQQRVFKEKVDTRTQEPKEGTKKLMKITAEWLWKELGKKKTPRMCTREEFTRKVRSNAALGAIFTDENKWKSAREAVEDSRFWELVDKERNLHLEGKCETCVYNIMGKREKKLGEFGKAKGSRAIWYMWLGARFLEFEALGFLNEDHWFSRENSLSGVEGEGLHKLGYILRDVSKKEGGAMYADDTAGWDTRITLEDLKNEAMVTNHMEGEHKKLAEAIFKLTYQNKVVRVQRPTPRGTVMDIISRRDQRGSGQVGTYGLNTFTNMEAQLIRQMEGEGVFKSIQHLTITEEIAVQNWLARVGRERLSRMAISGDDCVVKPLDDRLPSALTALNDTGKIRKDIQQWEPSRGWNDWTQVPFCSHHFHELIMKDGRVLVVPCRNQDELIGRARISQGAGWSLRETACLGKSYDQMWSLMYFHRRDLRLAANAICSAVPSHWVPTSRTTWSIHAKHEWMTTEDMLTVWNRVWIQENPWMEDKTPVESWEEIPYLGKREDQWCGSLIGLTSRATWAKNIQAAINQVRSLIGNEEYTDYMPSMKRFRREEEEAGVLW
# Chain of 72 kDa type IV collagenase (P08253 whole entry): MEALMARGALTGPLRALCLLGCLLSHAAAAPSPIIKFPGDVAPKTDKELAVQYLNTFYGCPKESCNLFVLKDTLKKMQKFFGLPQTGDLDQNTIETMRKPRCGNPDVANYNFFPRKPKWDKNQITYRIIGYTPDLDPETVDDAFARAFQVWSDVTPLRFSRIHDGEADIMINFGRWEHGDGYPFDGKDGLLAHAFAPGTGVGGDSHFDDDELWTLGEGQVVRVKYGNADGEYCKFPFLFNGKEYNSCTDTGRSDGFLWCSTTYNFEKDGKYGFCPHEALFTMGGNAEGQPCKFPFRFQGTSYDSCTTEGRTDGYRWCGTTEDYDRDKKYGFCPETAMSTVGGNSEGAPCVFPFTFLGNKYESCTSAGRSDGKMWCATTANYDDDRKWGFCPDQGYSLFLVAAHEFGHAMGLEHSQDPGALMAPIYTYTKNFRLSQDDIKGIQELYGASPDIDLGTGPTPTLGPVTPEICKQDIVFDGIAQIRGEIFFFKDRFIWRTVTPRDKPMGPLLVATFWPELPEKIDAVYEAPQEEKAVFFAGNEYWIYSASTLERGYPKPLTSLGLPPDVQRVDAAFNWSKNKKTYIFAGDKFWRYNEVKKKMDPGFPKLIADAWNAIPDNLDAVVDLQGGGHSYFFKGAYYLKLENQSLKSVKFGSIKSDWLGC
# Chain of Mu-type opioid receptor (P35372 whole entry): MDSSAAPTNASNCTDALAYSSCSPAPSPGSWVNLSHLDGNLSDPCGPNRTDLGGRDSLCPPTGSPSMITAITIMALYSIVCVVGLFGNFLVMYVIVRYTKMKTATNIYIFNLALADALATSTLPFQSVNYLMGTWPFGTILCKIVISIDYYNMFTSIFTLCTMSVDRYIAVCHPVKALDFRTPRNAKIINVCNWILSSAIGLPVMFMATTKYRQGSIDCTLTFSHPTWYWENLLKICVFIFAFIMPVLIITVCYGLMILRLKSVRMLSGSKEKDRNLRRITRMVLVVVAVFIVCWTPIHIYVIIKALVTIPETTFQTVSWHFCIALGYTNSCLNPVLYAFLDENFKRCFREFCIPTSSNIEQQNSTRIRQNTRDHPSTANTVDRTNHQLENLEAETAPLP
# Chain of Delta-type opioid receptor (P41143 whole entry): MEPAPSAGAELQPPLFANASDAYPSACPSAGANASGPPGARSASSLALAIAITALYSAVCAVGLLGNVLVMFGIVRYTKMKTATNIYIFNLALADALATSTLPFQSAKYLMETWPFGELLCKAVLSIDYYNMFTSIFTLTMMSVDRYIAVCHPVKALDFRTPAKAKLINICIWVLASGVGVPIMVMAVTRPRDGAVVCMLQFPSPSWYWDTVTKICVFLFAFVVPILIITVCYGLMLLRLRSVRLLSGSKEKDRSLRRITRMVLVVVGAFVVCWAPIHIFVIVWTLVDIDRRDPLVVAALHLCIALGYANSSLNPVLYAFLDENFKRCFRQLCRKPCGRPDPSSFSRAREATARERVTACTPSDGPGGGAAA
# Chain of Nonstructural protein 1 (Q194T2 whole entry): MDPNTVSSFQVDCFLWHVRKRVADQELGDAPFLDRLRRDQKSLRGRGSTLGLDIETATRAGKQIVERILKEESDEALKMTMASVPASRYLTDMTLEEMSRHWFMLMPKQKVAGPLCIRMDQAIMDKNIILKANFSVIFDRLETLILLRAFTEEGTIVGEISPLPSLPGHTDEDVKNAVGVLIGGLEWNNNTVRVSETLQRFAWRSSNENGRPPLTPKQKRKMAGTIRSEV
compound,measurement,setting,value
COc1cccc(-c2coc3c(C)c4oc(=O)c(CCC(=O)O)c(C)c4cc23)c1,EC50,[1],2.4 µM (active)
same,EC50,Streptokinase A,> 150 µM (not active)
same,EC50,Streptococcus,13.4 µM (active)
same,CC50,Vero,> 40 µM (active)
same,IC50,Genome polyprotein,40.5 µM (active)
same,AC50,[2],98 µM (active)
same,AC50,[3],130 µM (active)
Nc1c(-c2ccccc2)c(CSc2nc3ccccc3[nH]2)nn1-c1cccc(Cl)c1,EC50,[1],2.14 µM (active)
same,EC50,Streptokinase A,> 150 µM (not active)
same,EC50,[4],1.17 µM (active)
same,EC50,[5],> 60 µM (not active)
same,EC50,Streptococcus,> 150 µM (not active)
same,AC50,[6],3.17 µM (active)
same,EC50,Protein RecA,2.71 µM (active)
same,IC50,[7],34 µM (active)
same,IC50,[8],> 100 µM (inactive)
same,IC50,Prothrombin,41.5 µM (active)
Cc1nc2nc(C)n(CCN3CCOCC3)c(=O)c2c(-c2cccc([N+](=O)[O-])c2)c1C(=O)CCCCCCCCCCN1CCC(c2ccccc2)(c2ccccc2)CC1,IC50,Nonstructural protein 1,21.9 µM (active)
same,EC50,[9],> 92.4 µM (inactive)
same,EC50,Mu-type opioid receptor,> 92.4 µM (inactive)
same,EC50,[10],> 92.4 µM (inactive)
same,IC50,[11],1.35 µM (active)
same,AC50,[12],7.38 µM (active)
same,AC50,[13],14.7 µM (active)
same,AC50,[14],11.3 µM (active)
Cc1cc(C)c(O)c(N2CC(C(=O)O)CC2=O)c1 (stereo unspecified),EC50,[15],> 100 µM (inactive)
